Here are results for four molecules from ChEMBL document CHEMBL2331296, “Synthesis of tetrahydroxybiphenyls and tetrahydroxyterphenyls and their evaluation as amyloid-β aggregation inhibitors” (Bioorg Med Chem Lett, 2013).

Activity calls are given as the source filed them. No cut-off for these calls is given here.

The target in test [1] is T1, Amyloid-beta precursor protein (Homo sapiens, UniProt P05067). The test can be described thus: Inhibition of amyloid-beta40 (unknown origin) aggregation at 250 uM by congo red spectral-shift assay.
T1 sequence (P05067 whole entry): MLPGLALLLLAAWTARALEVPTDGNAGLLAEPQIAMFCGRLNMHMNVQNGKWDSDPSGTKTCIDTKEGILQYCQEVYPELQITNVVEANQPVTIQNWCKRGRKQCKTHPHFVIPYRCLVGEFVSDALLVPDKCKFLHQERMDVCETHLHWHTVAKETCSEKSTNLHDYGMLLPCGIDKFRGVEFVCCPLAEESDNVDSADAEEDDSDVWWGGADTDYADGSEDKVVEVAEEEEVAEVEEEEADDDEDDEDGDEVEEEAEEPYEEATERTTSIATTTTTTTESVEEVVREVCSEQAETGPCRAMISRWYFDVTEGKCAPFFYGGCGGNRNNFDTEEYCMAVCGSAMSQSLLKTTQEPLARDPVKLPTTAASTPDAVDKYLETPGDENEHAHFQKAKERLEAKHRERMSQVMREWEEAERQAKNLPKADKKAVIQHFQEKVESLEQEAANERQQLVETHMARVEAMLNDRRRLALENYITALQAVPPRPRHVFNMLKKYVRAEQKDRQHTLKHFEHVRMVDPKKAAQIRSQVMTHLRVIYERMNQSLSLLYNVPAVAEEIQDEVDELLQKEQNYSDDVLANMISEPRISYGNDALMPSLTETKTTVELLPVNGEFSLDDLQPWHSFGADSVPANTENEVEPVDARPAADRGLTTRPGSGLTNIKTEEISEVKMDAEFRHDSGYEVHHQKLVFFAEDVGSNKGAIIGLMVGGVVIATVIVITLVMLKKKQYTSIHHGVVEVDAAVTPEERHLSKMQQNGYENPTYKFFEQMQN
The target in test [2] is T1, Amyloid-beta precursor protein. The test can be described thus: Inhibition of amyloid-beta40 (unknown origin) aggregation by congo red spectral-shift assay.
The target is the same in test [3]. The test can be described thus: Displacement of congo red from amyloid-beta40 (unknown origin) assessed as reduction of congo red-amyloid beta40 complex level. Set-up: scale not given: the % may be the effect or the level left.

Consider `Oc1ccc(-c2ccccc2-c2ccc(O)c(O)c2)cc1O`, for which the outcome in test [1] was inactive. In test [2], the IC50 amounted to 67.5 µM. Further, the Activity in test [3] turned out to be 2.6%.

For the molecule `Oc1ccc(-c2cccc(-c3ccc(O)c(O)c3)c2)cc1O`, the outcome in test [1] was inactive. The IC50 in test [2] is 92.5 µM. Moreover, the Activity in test [3] was determined as 2.6%.

Regarding `Oc1ccc(-c2ccc(O)c(O)c2)cc1O`, the IC50 in test [2] amounted to 25 µM. Besides, the Activity in test [3] was 2.6%.

Regarding `Oc1ccc(-c2ccc(-c3ccc(O)c(O)c3)cc2)cc1O`, the outcome in test [1] was Active.
